Laboratory results reported in patent US7531507B2, “Acylated nonadepsipeptides containing pyridyl alanine residues” (AiCuris GmbH & Co. KG, priority 2004, dated 2009).
Values after ≈ are worked out from the molar mass of the structure shown. Counter-ions that a name gives are not always drawn. Like-named read-outs stand apart in the source and are kept apart here. Starred links: 1 amine or outer side, 2 acyl side, 3 side chain; linkers in the order of their positions; H or OH if unused. Positions of bridges follow the written chain, without caps; N, C: chain ends. Non-standard residues stand in square brackets, D forms with d. Residues, ends and D or L forms follow the SMILES beside them. *: point of attachment. X3 = CCC(C)(C)C[C@@H](N)C(=O)N[C@@H](Cc1cccnc1)C(=O)N[C@H](C(N)=O)[C@H](O*)c1ccccc1; Phe(3R-OH) = O=C([C@@H](N[*:1])[C@H](O[*:3])c1ccccc1)[*:2]; Asn(3S-OH) = NC(=O)[C@@H](O)[C@H](N)C(=O)O; Leu(3R-OH) = CC(C)[C@@H](O)[C@H](N)C(=O)O; dAla(TMS) = C[Si](C)(C)C[C@@H](N)C(=O)O; X1 = CC(C)[C@@H](O)[C@H](C)C(=O)*; 3Pal = N[C@@H](Cc1cccnc1)C(=O)O; aThr = C[C@H](O)[C@H](N)C(=O)O

How the values were obtained:
E. faecium L4001 = format: cell-based, Enterococcus faecium; details: Isosensitest medium, 10^5 microbes per ml, 37° C., 18-24 hours
[1] = Determination of the free fraction (fu) in plasma via Transil or ultrafiltration; format: in vitro ADME, rat
Procedure: Principle of the Determination of the Free Fraction via Transil:
The method described herein for determining the free fraction (fu) of a test substance is divided into 2 parts:
a) Determination of the Transil®/buffer partitioning ratio (MAbuffer) by incubating the test substance in a Transil® buffer (pH 7.4) dispersion and subsequently determining the concentration in the dispersion and in the buffer supernatant.
b) Determination of the Transil®/plasma partitioning ratio (MAplasma) by incubating the test substance in a Transil® plasma dispersion and subsequently determining the concentration in the dispersion and in the plasma.
The quotient of the two partitioning ratios gives fu.
Where substances are highly protein-bound, the plasma is usually diluted with isotonic phosphate buffer (pH 7.4) and then suspended with Transil®. Determination of fu′ (free fraction in diluted plasma) in this diluted protein solution takes place in analogy to the determination of fu. The free fraction in undiluted plasma is calculated from fu′ and the dilution factor.
Concerning this method, compare also: Schuhmacher, Joachim; Kohlsdorfer, Christian; Buehner, Klaus; Brandenburger, Tim; Kruk, Renate, “High-throughput determination of the free fraction of drugs strongly bound to plasma proteins.” Journal of Pharmaceutical Sciences 2004, 93, 816-830.
Determination of the Membrane Affinity of a Test Substance After Partitioning Between Transil® and Buffer (MAbuffer):
All incubations are carried out in suitable glass vessels, e.g. glass vials, ground-joint test tubes. The total volume is usually 0.5-5 ml, and the Transil® volume is 10-100 μl. If the membrane affinities are expected to be high, the Transil® dispersion can be diluted up to 20 times with phosphate buffer of pH 7.4, e.g. Dulbecco's PBS. Phosphate buffer of pH 7.4 is introduced into the incubation vessels, and the Transil® is pipetted in after thorough mixing. The test substance is pipetted in at a concentration of, for example, 200 ng/ml, n=6. The proportion of organic solvents should be ≦2%. The mixtures are incubated at room temperature i.e. on a mini-shaker at an angle of about 45°, at about 400 rpm for 30 min. The 100% value is determined by taking at least one aliquot of, for example, 100 μl, and the remaining mixture is centrifuged at about 1800 g for about 10 min. […]
The plasma of the species to be investigated is filtered through a semipermeable membrane. The concentration of substance in the filtrate is measured, and the free fraction fU is calculated therefrom. […] The concentration of substance in the ultrafiltrate (Cu, unbound substance concentration) and in the plasma before centrifugation (C; total substance concentration) is measured. The free fraction is calculated by the formula fu (%)=Cu/C*100.

E. faecalis ICB 27159 = format: cell-based, Enterococcus faecalis
Procedure: (§1) Determination of the Minimum Inhibitory Concentration (MIC):
(§2) The MIC is determined in the liquid dilution test in accordance with the NCCLS guidelines. Overnight cultures of Staphylococcus aureus 133, Enterococcus faecalis 27159, E. faecium 4147 and Streptococcus pneumoniae G9a are incubated with the described test substances in a 1:2 dilution series. The MIC determination is carried out with a cell count of 10^5 microbes per ml in Isosensitest medium (Difco, Irvine/USA), with the exception of S. pneumoniae which is tested in BHI broth (Difco, Irvine/USA) with 10% bovine serum with a cell count of 10^6 microbes per ml. The cultures are incubated at 37° C. for 18-24 hours, S. pneumoniae in the presence of 10% CO2.
(§3) The MIC is defined as the lowest concentration of each substance at which visible bacterial growth no longer occurs. The MIC values are reported in μg/ml.

[2] = tested on: Staphylococcus aureus 133; format: cell-based
Procedure: as §1, §2, §3

[3] = tested on: Streptococcus pneumoniae G9a; format: cell-based
Procedure: as §1, §2, §3

[4] = free fraction in rat plasma, read-out: fu (rat)
[5] = Isosensitest medium, 10^5 microbes per ml, 37° C., 18-24 hours
[6] = BHI broth with 10% bovine serum, 10^6 microbes per ml, 37° C., 18-24 hours, 10% CO2
[7] = Isosensitest medium, 10^5 microbes per ml, 37° C., 18-24 hours, trishydrochloride

CC[C@H](C)[C@@H]1NC(=O)[C@@H](CCCNC(=N)N)NC(=O)[C@H](CC(C)C)NC(=O)[C@H]([C@H](O)C(C)C)NC(=O)[C@@H](NC(=O)[C@H](CC(C)C)NC(=O)[C@H](N)CC(C)C)[C@@H](c2ccccc2)OC(=O)[C@H](CO)NC(=O)[C@H]([C@H](O)C(N)=O)NC(=O)CNC(=O)[C@H]([C@H](C)O)NC1=O [Example 1A, D-Leucyl-N^1-4-{(3S,6S,12S,15S,18R,21S,24S,27S,28R)-6-[(1S)-2-amino-1-hydroxy-2-oxoethyl]-18-(3-{[amino(imino)methyl]amino}propyl)-12-[(1S)-1-hydroxyethyl]-3-(hydroxymethyl)-24-[(1R)-1-hydroxy-2-methylpropyl]-21-isobutyl-15-[(1S)-1-methylpropyl]-2,5,8,11,14,17,20,23,26-nonaoxo-28-phenyl-1-oxa-4,7,10,13,16,19,22,25-octaazacyclooctacosan-27-yl}-L-leucinamide bistrifluoroacetate (lysobactin), reference compound] (H-[dL]L[Phe(3R-OH)][Leu(3R-OH)]L[dR]I[aThr]G[Asn(3S-OH)]S; ester 3-C)
MIC E. faecium L4001 (E. faecium L4001): 0.5 µg/mL (≈ 0.392 µM)
fraction unbound at 30 min [1, 4]: 0.0067
MIC E. faecalis ICB 27159 (E. faecalis ICB 27159; [5]): 0.5 µg/mL (≈ 0.392 µM)
MIC S. aureus 133 [2, 5]: 0.5 µg/mL (≈ 0.392 µM)
MIC S. pneumoniae G9a [3, 6]: 0.063 µg/mL (≈ 0.0494 µM)

CC[C@H](C)[C@@H]1NC(=O)[C@@H](CCCNC(=N)N)NC(=O)[C@H](CC(C)C)NC(=O)[C@H]([C@H](O)C(C)C)NC(=O)[C@@H](NC(=O)[C@H](Cc2cccnc2)NC(=O)[C@H](N)C[Si](C)(C)C)[C@@H](c2ccccc2)OC(=O)[C@H](CO)NC(=O)[C@H]([C@H](O)C(N)=O)NC(=O)CNC(=O)[C@H]([C@H](C)O)NC1=O [Example 2, 3-(Trimethylsilyl)-D-alanyl-3-(pyridin-3-yl)-L-alanyl-de(1-D-leucyl-2-L-leucyl)-lysobactin tristrifluoroacetate] (H-[dAla(TMS)][3Pal][Phe(3R-OH)][Leu(3R-OH)]L[dR]I[aThr]G[Asn(3S-OH)]S; ester 3-C)
MIC E. faecium L4001 (E. faecium L4001): 1 µg/mL (≈ 0.745 µM)
fraction unbound at 30 min [1, 4]: 0.123
MIC E. faecalis ICB 27159 (E. faecalis ICB 27159; [5]): 0.5 µg/mL (≈ 0.373 µM)
MIC S. aureus 133 [2, 5]: 0.125 µg/mL (≈ 0.0932 µM)
MIC S. pneumoniae G9a [3, 6]: 0.125 µg/mL (≈ 0.0932 µM)

CC[C@H](C)[C@@H]1NC(=O)[C@@H](CCCNC(=N)N)NC(=O)[C@H](CC(C)C)NC(=O)[C@H]([C@H](O)C(C)C)NC(=O)[C@@H](NC(=O)[C@H](Cc2cccnc2)NC(=O)[C@H](N)C[Si](C)(C)C)[C@@H](c2ccccc2)OC(=O)[C@H](CO)NC(=O)[C@H]([C@H](O)C(N)=O)NC(=O)CNC(=O)[C@H]([C@H](C)O)NC1=O [Example 3, 3-(Trimethylsilyl)-D-alanyl-3-(pyridin-3-yl)-L-alanyl-de(1-D-leucyl-2-L-leucyl)-lysobactin trismethanesulphonate] (H-[dAla(TMS)][3Pal][Phe(3R-OH)][Leu(3R-OH)]L[dR]I[aThr]G[Asn(3S-OH)]S; ester 3-C)
MIC S. aureus 133 [2, 5]: 0.5 µg/mL

CC[C@H](C)[C@H](NC(=O)[C@@H](CCCNC(=N)N)NC(=O)[C@H](CC(C)C)NC(=O)[C@@H](C)[C@H](O)C(C)C)C(=O)N[C@H](C(=O)NCC(=O)N[C@H](C(=O)N[C@@H](CO)C(=O)O[C@H](c1ccccc1)[C@H](NC(=O)[C@H](Cc1cccnc1)NC(=O)[C@H](N)CC(C)(C)CC)C(N)=O)[C@H](O)C(N)=O)[C@H](C)O.O=C(O)C(F)(F)F.O=C(O)C(F)(F)F.O=C(O)C(F)(F)F [Example 4, 4,4-Dimethyl-D-norleucyl-3-(pyridin-3-yl)-L-alanyl-de(1-D-leucyl-2-L-leucyl)lysobactin tristrifluoroacetate] (X1-L[dR]I[aThr]G[Asn(3S-OH)]S-X3)
fraction unbound at 30 min ([1]; rat, plasma): 0.061
MIC E. faecalis ICB 27159 (E. faecalis ICB 27159; ICB 27159): 1 µg/mL
MIC S. aureus 133 [2]; 133: 0.25 µg/mL
MIC S. pneumoniae G9a ([3]; G9a): 0.125 µg/mL

CC[C@H](C)[C@@H]1NC(=O)[C@@H](CCCNC(=N)N)NC(=O)[C@H](CC(C)C)NC(=O)[C@H]([C@H](O)C(C)C)NC(=O)[C@@H](NC(=O)[C@H](Cc2cccnc2)NC(=O)[C@H](N)C[Si](C)(C)C)[C@@H](c2ccccc2)OC(=O)[C@H](CO)NC(=O)[C@H]([C@H](O)C(N)=O)NC(=O)CNC(=O)[C@H]([C@H](C)O)NC1=O [Example 6, (Trimethylsilyl)-D-alanyl-3-(pyridin-3-yl)-L-alanyl-de(1-D-leucyl-2-L-leucyl)lysobactin trishydrochloride] (H-[dAla(TMS)][3Pal][Phe(3R-OH)][Leu(3R-OH)]L[dR]I[aThr]G[Asn(3S-OH)]S; ester 3-C)
MIC E. faecalis ICB 27159 (E. faecalis ICB 27159; [7]): 1 µg/mL
MIC S. aureus 133 [2, 7]: <0.063 µg/mL
MIC S. pneumoniae G9a ([3]; BHI broth with 10% bovine serum, 10^6 microbes per ml, 37° C., 18-24 hours, 10% CO2, trishydrochloride): <0.063 µg/mL

CC[C@H](C)[C@@H]1NC(=O)[C@@H](CCCNC(=N)N)NC(=O)[C@H](CC(C)C)NC(=O)[C@H]([C@H](O)C(C)C)NC(=O)[C@@H](NC(=O)[C@H](Cc2cccnc2)NC(=O)[C@H](N)C[Si](C)(C)C)[C@@H](c2ccccc2)OC(=O)[C@H](CO)NC(=O)[C@H]([C@H](O)C(N)=O)NC(=O)CNC(=O)[C@H]([C@H](C)O)NC1=O [Example 7, (Trimethylsilyl)-D-alanyl-3-(pyridin-3-yl)-L-alanyl-de(1-D-leucyl-2-L-leucyl)lysobactin tris-L-lactate] (H-[dAla(TMS)][3Pal][Phe(3R-OH)][Leu(3R-OH)]L[dR]I[aThr]G[Asn(3S-OH)]S; ester 3-C)
MIC E. faecalis ICB 27159 (E. faecalis ICB 27159; [5]): 1 µg/mL (≈ 0.745 µM)
MIC S. aureus 133 [2, 5]: 0.063 µg/mL (≈ 0.047 µM)

CC[C@H](C)[C@@H]1NC(=O)[C@@H](CCCNC(=N)N)NC(=O)[C@H](CC(C)C)NC(=O)[C@H]([C@H](O)C(C)C)NC(=O)[C@@H](NC(=O)[C@H](Cc2cccnc2)NC(=O)[C@H](N)C[Si](C)(C)C)[C@@H](c2ccccc2)OC(=O)[C@H](CO)NC(=O)[C@H]([C@H](O)C(N)=O)NC(=O)CNC(=O)[C@H]([C@H](C)O)NC1=O [Example 8, (Trimethylsilyl)-D-alanyl-3-(pyridin-3-yl)-L-alanyl-de(1-D-leucyl-2-L-leucyl)lysobactin tris-D-tartrate] (H-[dAla(TMS)][3Pal][Phe(3R-OH)][Leu(3R-OH)]L[dR]I[aThr]G[Asn(3S-OH)]S; ester 3-C)
MIC E. faecalis ICB 27159 (E. faecalis ICB 27159; [5]): 2 µg/mL (≈ 1.49 µM)
MIC S. aureus 133 [2, 5]: 0.25 µg/mL (≈ 0.186 µM)
